A word on the IC50: it is the concentration at which inhibition is half-maximal. Read a low IC50 as greater potency in that assay.

Structures are written as SMILES.

Test [1] relates to SK-Hep1. The test is described as follows: Cell Titer-Glo viability, SK-Hep1. Type of test: cell-based. The following applies: Homo sapiens. On the procedure:
The efficacy of compound 47 against HCC proliferation was tested on a wider panel of HCC cell lines: Hep3B ([…]), Hs817T (▪), PLC/PRF/5 (▴) and SK-Hep 1 (▾), as determined by Cell Titer-Glo assay.
Cells were plated at 5000-7000 cells/per well and incubated for 24 h before treatment. […] Cell Titer-Glo (Promega, Madison, Wis.) assay was performed according to manufacturer's instruction with luminescence detected on SpectraMax M5 (Molecular Devices, Sunnyvale, Calif.). Data was expressed as percentage of viability vs. vehicle-treated controls.
Accordingly, Compound 47 was screened against a larger panel of 4 additional HCC cell lines.
A general note: Cellular ATP, detected with luciferase, serves as a proxy for viable cell number.

For test [2], the system named is phospho-Erk, phospho-Akt, PCNA, cyclin D1, cleaved PARP, Bax, Bcl-xL. In words: Immunoblot of signalling, cell cycling and apoptosis markers in HuH7 or HepG2. The following applies: HuH7 or HepG2, 0, 1, 5 or 10 μM, 24 h. Type of test: cell-based, human. On the procedure:
HuH7 or HepG2 cells were treated with increasing concentration of Compound 47 (0, 1, 5 or 10 μM) for 24 h. Cell lysates were harvested and immunoblotted against cleaved PARP, phospho-Erk, phospho-Akt, PCNA, cyclin D1, Bax and Bcl-xL, with HSP60 as loading control.
Protein concentrations were assayed by BCA method (Pierce, Rockford, Ill.). Samples were resolved using 6-10% SDS-PAGE and transferred to nitrocellulose or PVDF membranes by tank transfer. Immunodetection was by chemiluminescence (SuperSignal, Pierce) using specific antibodies diluted in PBS with 0.05% (v/v) Tween 20 and 5% (w/v) powdered milk or BSA. Anti-phospho-IGF-1R, anti-phospho-EphA2, anti-phospho-Erk, anti-phospho-Akt, anti-Bax, anti-BCL-xL were from Cell Signaling Technology (Beverly, Mass.); anti-PCNA and anti-HSP60 from Santa Cruz Biotechnology (Santa Cruz, Calif.); anti-cyclin-D1 from BD Pharmingen (San Jose, Calif.). Secondary antibodies were anti-mouse and anti-rabbit HRP-conjugated antibodies (Pierce).
(§1) Next, the mechanism of Compound 47's anti-proliferative effects was investigated. […] However, there was little effect on the mitochondrial apoptotic players Bax and BCL-xL.
On the technique in general: A western blot detects proteins with antibodies after separation by electrophoresis.

In test [3] the test system is caspase-3. The test is described as follows: Caspase-3 activity assay in HuH7 and HepG2. Type of test: cell-based, human. The following applies: HuH7 and HepG2, 24 h, Ac-DEVD-AMC hydrolysis. On the procedure: HuH7 (darker bar) and HepG2 (lighter bar) cells treated as described in FIG. 4 were harvested for caspase-3 assay performed by the catalytic hydrolysis of fluorogenic Ac-DEVD-AMC. Results were expressed as a normalized RFU per μg lysate per h of incubation with the AMC substrate (n=3).
Cells were subjected to Compound 47 treatment for 24 h prior to harvesting. Caspase-3 activities were determined by as previously described (Ho HK, Pok S, Streit S, Ruhe J E, Hart S, Lim K S, et al. Fibroblast growth factor receptor 4 regulates proliferation, anti-apoptosis and alpha-fetoprotein secretion during hepatocellular carcinoma progression and represents a potential target for therapeutic intervention. J Hepatol 2009 January; 50(1):118-127). Data were expressed as RFU/μg lysate/h incubation and error bars in terms of SD with n=3.
as §1

For test [4], the system named is AFP. The test is described as follows: AFP transcription in HuH7 by quantitative real-time PCR. The test is classed as cell-based, human. The following applies: HuH7, 10 μM, 24 h, normalized against 18S mRNA.
The target of test [5] is T1, IGF-1R (Homo sapiens, UniProt P08069).
T1 construct: we examined the constitutively phosphorylated IGF-1R, EphA2 and Tyro3; endogenous in cells; host or cells: HuH7
The test is described as follows: Human phospho-RTK array, HuH7: IGF-1R. Type of test: cell-based. The following applies: 24 h, untreated 0.19. On the procedure: (§2) Kinase phosphorylation changes were determined with human phospho-RTK array.
(§3) Cells harvesting, hybridization with RTK array and incubation with anti-phosphotyrosine were performed according to manufacturer's instruction. Imaging and quantification of the spots intensities was with Fujifilm LAS-3000 (Tokyo, Japan). Average signal of the duplicate spots for each RTK was determined.

For test [6], the target named is T2, Her3 (Homo sapiens, UniProt P21860).
T2 construct: endogenous in cells; host or cells: HuH7
The test is described as follows: Human phospho-RTK array, HuH7: Her3. Type of test: cell-based. The following applies: 24 h, untreated 0.05. On the procedure: as §2, §3

Test [7] has as its target T3, Met (Homo sapiens, UniProt P08581).
T3 construct: endogenous in cells; host or cells: HuH7
In words: Human phospho-RTK array, HuH7: Met. Type of test: cell-based. The following applies: 24 h, untreated 0.05. Here is the method:
as §2, §3

Test [8] concerns the target T4, EphA2 (Homo sapiens, UniProt P29317).
T4 construct: we examined the constitutively phosphorylated IGF-1R, EphA2 and Tyro3; endogenous in cells; host or cells: HuH7
In words: Immunoprecipitation / anti-phosphotyrosine blot of EphA2 in HuH7. Type of test: cell-based. The following applies: HuH7, 24 h; Compound 47 1, 5 or 10 μM, sunitinib 10 μM.

The target of test [9] is T5, EGFR (Homo sapiens, UniProt P00533).
T5 construct: Cells treated similarly were immunoprecipitated with anti-EGFR, anti-EphA2 and anti-Tyro3; endogenous in cells; host or cells: HuH7
The test is classed as cell-based.

T2 sequence (P21860 20-1342): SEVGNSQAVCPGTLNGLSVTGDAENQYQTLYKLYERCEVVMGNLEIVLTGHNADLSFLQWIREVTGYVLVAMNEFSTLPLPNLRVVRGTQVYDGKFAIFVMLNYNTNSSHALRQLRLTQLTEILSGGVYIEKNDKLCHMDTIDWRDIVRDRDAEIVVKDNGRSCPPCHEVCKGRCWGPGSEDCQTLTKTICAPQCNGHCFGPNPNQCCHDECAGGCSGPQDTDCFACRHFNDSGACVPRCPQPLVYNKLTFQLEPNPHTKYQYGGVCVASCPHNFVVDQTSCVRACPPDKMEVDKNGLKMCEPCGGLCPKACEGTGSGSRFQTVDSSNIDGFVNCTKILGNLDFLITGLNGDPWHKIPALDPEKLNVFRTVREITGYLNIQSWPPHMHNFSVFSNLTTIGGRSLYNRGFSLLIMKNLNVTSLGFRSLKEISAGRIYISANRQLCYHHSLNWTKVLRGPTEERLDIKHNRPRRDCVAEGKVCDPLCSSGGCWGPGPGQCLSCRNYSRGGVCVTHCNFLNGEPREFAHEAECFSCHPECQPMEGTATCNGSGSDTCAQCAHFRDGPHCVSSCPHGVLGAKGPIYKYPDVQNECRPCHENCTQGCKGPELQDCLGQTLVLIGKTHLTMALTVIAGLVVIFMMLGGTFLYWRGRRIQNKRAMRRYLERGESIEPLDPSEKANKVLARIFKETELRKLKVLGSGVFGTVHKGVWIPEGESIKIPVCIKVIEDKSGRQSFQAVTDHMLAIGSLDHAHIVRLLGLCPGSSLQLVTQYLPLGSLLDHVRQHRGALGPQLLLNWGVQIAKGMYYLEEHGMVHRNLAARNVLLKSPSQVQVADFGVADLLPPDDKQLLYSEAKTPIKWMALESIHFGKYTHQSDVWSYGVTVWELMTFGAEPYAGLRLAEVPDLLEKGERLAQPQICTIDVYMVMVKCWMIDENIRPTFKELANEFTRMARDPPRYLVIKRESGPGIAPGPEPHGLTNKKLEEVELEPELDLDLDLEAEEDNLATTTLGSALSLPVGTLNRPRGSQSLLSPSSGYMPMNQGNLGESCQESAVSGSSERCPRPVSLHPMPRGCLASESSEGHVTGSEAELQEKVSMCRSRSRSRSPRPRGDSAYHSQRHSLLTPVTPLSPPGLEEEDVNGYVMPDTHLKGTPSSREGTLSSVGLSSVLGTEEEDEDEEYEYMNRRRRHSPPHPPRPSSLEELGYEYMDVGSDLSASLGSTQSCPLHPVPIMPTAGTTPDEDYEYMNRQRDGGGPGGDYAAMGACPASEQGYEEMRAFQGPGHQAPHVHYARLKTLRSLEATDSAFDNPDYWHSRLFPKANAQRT
T3 sequence (P08581 25-1390): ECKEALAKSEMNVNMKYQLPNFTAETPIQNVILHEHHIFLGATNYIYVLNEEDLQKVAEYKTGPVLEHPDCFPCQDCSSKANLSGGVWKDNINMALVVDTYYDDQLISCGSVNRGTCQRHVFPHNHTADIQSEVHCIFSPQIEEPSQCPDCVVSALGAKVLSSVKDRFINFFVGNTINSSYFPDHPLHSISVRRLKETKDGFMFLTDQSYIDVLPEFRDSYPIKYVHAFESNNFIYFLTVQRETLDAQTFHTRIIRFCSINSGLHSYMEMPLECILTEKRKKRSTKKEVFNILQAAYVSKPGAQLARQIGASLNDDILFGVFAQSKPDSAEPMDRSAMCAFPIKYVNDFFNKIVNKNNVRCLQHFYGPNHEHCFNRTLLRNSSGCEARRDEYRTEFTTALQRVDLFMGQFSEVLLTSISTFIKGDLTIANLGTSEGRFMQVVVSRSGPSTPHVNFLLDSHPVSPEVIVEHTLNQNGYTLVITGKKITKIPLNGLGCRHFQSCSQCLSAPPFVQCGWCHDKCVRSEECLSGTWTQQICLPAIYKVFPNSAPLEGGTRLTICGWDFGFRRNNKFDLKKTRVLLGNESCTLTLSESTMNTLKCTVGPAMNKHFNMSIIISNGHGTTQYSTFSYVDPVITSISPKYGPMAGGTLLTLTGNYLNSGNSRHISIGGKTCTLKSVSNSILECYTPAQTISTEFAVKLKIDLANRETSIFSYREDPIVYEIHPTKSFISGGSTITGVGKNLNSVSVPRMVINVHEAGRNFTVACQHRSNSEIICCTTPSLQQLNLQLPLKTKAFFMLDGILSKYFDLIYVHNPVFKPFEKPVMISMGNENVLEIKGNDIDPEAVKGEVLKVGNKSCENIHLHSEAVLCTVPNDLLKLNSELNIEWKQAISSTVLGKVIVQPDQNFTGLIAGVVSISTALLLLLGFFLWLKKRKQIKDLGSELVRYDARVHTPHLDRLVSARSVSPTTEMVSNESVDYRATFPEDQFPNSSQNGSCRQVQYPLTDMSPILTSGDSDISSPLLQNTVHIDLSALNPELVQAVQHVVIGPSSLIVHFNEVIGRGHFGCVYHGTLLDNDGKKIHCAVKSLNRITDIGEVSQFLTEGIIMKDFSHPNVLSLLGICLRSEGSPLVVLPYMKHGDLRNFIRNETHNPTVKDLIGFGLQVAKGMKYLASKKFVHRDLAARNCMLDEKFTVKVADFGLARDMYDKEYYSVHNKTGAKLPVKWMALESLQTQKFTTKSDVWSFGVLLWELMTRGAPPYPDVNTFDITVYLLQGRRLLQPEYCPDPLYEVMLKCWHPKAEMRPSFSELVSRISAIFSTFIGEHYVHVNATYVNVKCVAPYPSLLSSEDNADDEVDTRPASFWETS
T1 sequence (P08069 31-1367): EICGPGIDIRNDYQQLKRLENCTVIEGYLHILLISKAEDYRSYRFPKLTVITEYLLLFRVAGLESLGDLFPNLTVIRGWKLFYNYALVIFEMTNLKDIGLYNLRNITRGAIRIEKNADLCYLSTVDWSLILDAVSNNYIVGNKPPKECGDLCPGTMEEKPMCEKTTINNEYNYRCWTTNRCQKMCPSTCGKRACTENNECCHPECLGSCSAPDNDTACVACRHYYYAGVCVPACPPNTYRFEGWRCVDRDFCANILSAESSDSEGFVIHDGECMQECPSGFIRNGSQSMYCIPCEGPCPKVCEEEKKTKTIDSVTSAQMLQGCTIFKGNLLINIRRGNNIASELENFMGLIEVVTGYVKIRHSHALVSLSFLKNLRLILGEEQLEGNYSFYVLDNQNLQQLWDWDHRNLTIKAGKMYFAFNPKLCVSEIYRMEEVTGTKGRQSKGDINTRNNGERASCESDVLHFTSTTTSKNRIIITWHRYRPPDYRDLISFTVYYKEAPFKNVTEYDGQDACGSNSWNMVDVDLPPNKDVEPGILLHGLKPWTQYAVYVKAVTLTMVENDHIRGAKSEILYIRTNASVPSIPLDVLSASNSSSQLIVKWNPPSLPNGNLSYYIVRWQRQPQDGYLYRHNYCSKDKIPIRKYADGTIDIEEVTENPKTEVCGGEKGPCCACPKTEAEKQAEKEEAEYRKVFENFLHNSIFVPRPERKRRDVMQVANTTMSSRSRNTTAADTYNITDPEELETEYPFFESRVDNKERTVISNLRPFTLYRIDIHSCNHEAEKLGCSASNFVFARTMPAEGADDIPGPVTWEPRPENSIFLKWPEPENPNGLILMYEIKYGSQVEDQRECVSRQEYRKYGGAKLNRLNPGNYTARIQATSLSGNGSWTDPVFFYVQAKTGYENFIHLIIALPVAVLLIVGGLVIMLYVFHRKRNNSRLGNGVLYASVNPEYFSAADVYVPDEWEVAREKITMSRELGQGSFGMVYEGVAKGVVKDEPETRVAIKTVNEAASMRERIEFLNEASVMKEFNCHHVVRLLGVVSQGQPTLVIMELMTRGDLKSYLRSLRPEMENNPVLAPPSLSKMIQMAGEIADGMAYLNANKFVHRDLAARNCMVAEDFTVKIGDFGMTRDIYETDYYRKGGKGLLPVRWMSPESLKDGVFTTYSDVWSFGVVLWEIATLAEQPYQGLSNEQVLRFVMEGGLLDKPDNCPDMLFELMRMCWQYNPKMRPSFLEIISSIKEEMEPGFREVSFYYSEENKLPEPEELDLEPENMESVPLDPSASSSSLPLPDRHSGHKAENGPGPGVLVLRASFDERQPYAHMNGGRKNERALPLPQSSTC
T4 sequence (P29317 24-976): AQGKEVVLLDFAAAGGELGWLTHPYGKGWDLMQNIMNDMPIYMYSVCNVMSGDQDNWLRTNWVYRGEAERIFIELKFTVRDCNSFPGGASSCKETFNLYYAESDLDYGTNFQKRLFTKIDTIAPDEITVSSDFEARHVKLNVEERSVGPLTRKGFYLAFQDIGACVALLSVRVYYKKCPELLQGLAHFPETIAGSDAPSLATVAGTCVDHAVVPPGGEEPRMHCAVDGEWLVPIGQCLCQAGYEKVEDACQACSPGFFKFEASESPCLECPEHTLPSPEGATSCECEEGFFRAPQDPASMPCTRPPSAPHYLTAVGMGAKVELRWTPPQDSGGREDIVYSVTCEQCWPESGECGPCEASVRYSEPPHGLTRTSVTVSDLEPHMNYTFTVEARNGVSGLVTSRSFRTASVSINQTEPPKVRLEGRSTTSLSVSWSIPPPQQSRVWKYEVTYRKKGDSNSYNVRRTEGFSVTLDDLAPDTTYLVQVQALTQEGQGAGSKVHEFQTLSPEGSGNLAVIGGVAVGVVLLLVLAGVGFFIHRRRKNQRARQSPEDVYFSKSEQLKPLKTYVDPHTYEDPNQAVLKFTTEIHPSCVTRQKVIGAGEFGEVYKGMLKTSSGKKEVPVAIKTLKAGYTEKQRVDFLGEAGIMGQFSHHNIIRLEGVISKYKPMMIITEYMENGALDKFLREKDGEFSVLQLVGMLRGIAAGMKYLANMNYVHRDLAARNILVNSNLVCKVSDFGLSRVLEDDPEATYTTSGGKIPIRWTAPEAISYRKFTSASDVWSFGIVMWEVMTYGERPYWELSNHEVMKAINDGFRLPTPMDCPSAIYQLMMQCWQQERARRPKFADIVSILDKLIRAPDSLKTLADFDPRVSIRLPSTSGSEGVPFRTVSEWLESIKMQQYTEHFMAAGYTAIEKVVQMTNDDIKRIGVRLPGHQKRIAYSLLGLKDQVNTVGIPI

The compound `O=C1Nc2cc(Cl)ccc2/C1=C\c1cccc(C(F)(F)F)c1` [Compound 47, (E)-6-Chloro-3-(3-(trifluoromethyl)benzylidene)indolin-2-one] returned an IC50 in test [1] of over 10 µM. In test [2], the “Bax and BCL-xL (mitochondrial apoptotic players)” value is reported as “little effect”. The “Erk and Akt phosphorylation” value in test [2] is reported as “dose-dependent inhibition”. Besides, the “cleaved PARP (apoptotic marker)” value in test [2] was “confirmed the participation of pro-apoptotic mechanism”. Besides, the “cyclin-D1 and PCNA expression (cell cycling markers)” value in test [2] is “corresponding reduction”. The caspase-3 activity result in test [3] is “activation”. Further, in test [4], the “AFP transcript vs untreated controls” value is given as “significantly repressed to one-third”. The “IGF-1R Phosphorylation” value is recorded as 0.22 Arbitrary units in test [5] (serum starved HuH7, 1 μM); 0.13 Arbitrary units in [5] (serum starved HuH7, 5 μM); 0.07 Arbitrary units in test [5] (serum starved HuH7, 10 μM). Further, the “Her3 Phosphorylation” value in test [6] (serum starved HuH7, 1 μM) is recorded as 0.07 Arbitrary units; in [6] (serum starved HuH7, 5 μM), 0.04 Arbitrary units; in test [6] (serum starved HuH7, 10 μM), 0.03 Arbitrary units. Moreover, the “Met Phosphorylation” value in test [7] (serum starved HuH7, 1 μM) turned out to be 0.08 Arbitrary units; in [7] (serum starved HuH7, 5 μM), 0.05 Arbitrary units; in test [7] (serum starved HuH7, 10 μM) it was 0.02 Arbitrary units. In [8], the “EphA2 phosphorylation by immunoblot” value is given as “proportional reduction”. Further, the “EGFR phosphorylation by immunoblot” value in [9] is listed as “unexpected increase”.

The values above are taken from patent US20110269812A1, “NOVEL BENZYLIDENE-INDOLINONE AND THEIR MEDICAL AND DIAGNOSTIC USES” (Agency for Science, Technology and Research, priority 2008, published 2011).
